Results taken from ChEMBL document CHEMBL1131739, “Synthesis of 25-aminosterols, new antifungal agents” (1999).
In brackets after ≈: the same amount, converted by molar mass.

Tested on: Candida albicans
Experiment: In vitro antifungal activity against candida albicans (IP 1180.79)
Format: functional

| MIC | Structure (SMILES) |
| --- | --- |
| 60 µM (≈ 26.6 µg/mL) | C[C@H](CCCC(C)(C)N)C1CC[C@@]2(C)C3=C(CC[C@]12C)[C@@]1(C)CC[C@H](O)C(C)(C)C1CC3 (some centres not stated) |
| 4 µM (≈ 1.61 µg/mL) | C[C@H](CCCC(C)(C)N)C1CCC2C3CC=C4C[C@@H](O)CC[C@]4(C)C3CC[C@@]21C (some centres not stated) |
